# Test results: patent publication US12558366B2, “Bacterial DNA gyrase inhibitors and methods of use thereof” (THE FLORIDA INTERNATIONAL UNIVERSITY BOARD OF TRUSTEES, priority 2021, dated 2026)
# Where two headings read alike, the source gives them in different places.
# Experiments:
# Mtb DNA gyrase = Mtb DNA gyrase (Mycobacterium tuberculosis, UniProt P9WG45+P9WG47); test: Mtb DNA gyrase inhibition; format: biochemical
# E. coli DNA gyrase [1] = biological target: T1, E. coli DNA gyrase (Escherichia coli, UniProt P0AES4+P0AES6); test: Agarose gel-based DNA gyrase inhibition assays; format: biochemical
# T1 sequence (P0AES4 whole entry, one chain of several): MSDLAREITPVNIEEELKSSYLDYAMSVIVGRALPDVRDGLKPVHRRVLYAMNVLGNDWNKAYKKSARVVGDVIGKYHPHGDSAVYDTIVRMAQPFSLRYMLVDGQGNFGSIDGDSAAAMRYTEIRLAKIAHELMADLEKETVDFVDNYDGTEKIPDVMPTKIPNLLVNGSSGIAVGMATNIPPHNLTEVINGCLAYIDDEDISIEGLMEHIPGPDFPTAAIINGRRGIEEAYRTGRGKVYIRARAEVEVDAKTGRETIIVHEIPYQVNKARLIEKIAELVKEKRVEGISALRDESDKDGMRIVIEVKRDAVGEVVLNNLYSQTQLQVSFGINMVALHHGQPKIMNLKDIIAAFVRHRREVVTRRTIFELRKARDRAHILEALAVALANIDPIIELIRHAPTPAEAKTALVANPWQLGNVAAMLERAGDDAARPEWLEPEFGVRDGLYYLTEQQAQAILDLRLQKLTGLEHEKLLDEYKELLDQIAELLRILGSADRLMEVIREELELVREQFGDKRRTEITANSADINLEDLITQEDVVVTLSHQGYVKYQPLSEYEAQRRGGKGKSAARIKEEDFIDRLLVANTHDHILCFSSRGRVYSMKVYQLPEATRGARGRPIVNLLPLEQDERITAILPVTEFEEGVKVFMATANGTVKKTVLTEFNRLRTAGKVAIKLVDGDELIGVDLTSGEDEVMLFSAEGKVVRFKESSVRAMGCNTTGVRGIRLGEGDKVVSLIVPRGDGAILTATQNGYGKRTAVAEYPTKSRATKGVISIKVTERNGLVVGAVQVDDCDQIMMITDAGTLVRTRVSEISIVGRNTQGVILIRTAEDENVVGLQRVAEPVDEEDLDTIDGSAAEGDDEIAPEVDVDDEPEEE
# Experimental: 100 ng of DNA gyrase was used to supercoil the rx pAB1 in the presence of different concentrations of a gyrase inhibitor. […] Samples were analyzed by electrophoresis in 1% w/v agarose gels followed by ethidium bromide staining and photographed under UV light.
# E. coli DNA gyrase [2] = biological target: T1, E. coli DNA gyrase; test: E. coli DNA gyrase inhibition (agarose gel-based and/or SDFQ-based, not specified per value); format: biochemical
# E. coli (ATCC 25922) = test: Minimum inhibitory concentration, E. coli; format: cell-based; details: Escherichia coli, ATCC25922, read-out: Minimum Inhibitory Concentration E. coli
# Experimental: (§1) Antibacterial minimum inhibitory concentrations (MICs) were obtained from three independent experiments using broth microdilution methods in 96-well plates according to Clinical and Laboratory Standards Institute guidelines. Cells were culture from singles colonies in MHIIB medium for 24 h at 37° C. in agitation (200 RPM). The cultures were then diluted using the same media to reach an OD600 of 0.1. Then, 50 μL of the diluted cultures were added to the plates holding 50 μL of serially diluted compounds in MHIIB. The plates were incubated at 37° C. for 20 h. The starting inoculum was fixated to 10^5 colony-forming units per ml.
# E. coli imp = test: microbe, parasite or virus in culture; format: cell-based; details: Escherichia coli, read-out: Minimum Inhibitory Concentration E. coli imp
# Experimental: as §1
# S. aureus (ATCC 14775) = test: Minimum inhibitory concentration, S. aureus; format: cell-based; details: for MIC: Staphylococcus aureus, ATCC14775
# Experimental: as §1
# MRSA (ATCC BAA44) = test: microbe, parasite or virus in culture; format: cell-based, S. aureus; details: for MIC: Staphylococcus aureus
# Experimental: as §1
# B. subtilis (ATCC 6633) = test: Minimum inhibitory concentration, B. subtilis; format: cell-based; details: Bacillus subtilis, ATCC6633; Tables 3a-3c
# Experimental: as §1
# Mtb = Mtb inhibition (antibacterial activity); format: cell-based, Mycobacterium tuberculosis; design: % Mtb inhibition: concentration or dose not given beside the values; details: for % Mtb inhibition: Table 5
# J774 = test: Cytotoxicity in J774 cells; format: cell-based; details: for cytotoxicity: J774, 200 μM; for IC50: highest concentration 200 μM
# HepG2 = test: Cytotoxicity in HepG2 cells; format: cell-based; details: for cytotoxicity: HepG2, 200 μM; for IC50: highest concentration 200 μM
# DNA = DNA binding, intercalation and photo-induced crosslinking
# E. coli DNA gyrase [3] = biological target: T1, E. coli DNA gyrase; test: E. coli DNA gyrase ATPase assays; format: biochemical
# Experimental: E. coli DNA gyrase ATPase assays were performed in 60 μl, of 1×gyrase ATPase buffer (10 mM Tris.HCl (pH 7.5), 0.2 mM EDTA, 1 mM magnesium chloride, 1 mM DTT, and 2% (w/v) glycerol) containing 50 nM E. coli DNA gyrase, 200 ng rx pAB1, 0.8 mM Phosphoenol pyruvate, 1.2 units of Pyruvate kinase, 1.7 units of lactate dehydrogenase, and 0.4 mM of NADH at 37° C. After the reaction mixtures are incubated on ice for 5 minutes, 2 mM of ATP is added to initiate the reaction. Absorbance at OD340 nm is monitored for up to 30 minutes at 37° C. in a spectrophotometer.
# [4] = Table 2 values, read-out: IC50 ( ≤15 μM) IC50
# [5] = Tables 3a-3c, read-out: Minimum Inhibitory Concentration S. aureus
# [6] = read-out: Minimum Inhibitory Concentration S. aureus MRSA
# Chain of Mtb DNA gyrase (P9WG45 whole entry): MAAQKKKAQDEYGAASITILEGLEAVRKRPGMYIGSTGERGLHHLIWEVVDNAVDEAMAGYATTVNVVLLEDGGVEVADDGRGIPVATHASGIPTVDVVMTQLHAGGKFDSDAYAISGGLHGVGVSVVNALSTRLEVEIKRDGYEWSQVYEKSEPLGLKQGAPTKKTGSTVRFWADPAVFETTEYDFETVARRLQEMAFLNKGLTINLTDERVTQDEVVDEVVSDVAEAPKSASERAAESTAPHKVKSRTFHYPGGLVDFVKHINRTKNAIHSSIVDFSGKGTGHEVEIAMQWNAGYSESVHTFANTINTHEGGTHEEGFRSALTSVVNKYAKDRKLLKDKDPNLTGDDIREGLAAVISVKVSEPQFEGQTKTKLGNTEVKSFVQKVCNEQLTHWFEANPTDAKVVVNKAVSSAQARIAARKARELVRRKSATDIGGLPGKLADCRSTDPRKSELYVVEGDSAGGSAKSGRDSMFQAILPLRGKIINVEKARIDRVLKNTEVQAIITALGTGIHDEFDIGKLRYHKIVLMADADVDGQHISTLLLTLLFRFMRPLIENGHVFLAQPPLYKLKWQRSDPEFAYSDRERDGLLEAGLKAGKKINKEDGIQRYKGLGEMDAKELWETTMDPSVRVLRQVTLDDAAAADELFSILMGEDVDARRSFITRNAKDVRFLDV
# Chain of Mtb DNA gyrase (P9WG47 whole entry): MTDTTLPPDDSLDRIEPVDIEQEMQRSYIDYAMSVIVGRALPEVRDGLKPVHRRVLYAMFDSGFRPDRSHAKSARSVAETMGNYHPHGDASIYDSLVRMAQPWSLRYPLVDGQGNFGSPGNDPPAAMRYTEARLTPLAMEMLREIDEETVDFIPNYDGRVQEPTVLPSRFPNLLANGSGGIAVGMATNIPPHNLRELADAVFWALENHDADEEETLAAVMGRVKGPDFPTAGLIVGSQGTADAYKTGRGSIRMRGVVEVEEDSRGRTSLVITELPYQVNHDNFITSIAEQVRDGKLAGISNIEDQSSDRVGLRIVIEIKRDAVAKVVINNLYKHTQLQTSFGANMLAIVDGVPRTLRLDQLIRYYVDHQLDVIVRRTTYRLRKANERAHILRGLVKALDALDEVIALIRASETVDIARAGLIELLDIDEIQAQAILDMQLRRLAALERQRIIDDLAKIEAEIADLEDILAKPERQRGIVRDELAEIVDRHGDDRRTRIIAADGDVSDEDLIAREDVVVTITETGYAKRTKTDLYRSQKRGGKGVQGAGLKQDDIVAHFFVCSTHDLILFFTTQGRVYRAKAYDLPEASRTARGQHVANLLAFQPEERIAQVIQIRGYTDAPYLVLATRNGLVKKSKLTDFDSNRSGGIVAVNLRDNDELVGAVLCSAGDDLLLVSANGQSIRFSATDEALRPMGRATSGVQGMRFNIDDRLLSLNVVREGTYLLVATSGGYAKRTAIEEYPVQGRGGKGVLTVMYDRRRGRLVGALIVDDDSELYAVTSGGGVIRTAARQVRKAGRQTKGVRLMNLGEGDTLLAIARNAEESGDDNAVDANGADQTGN
structure (smiles),measurement,setting,value
"CNC(=O)[C@H]1O[C@@H](n2cnc3c(NCc4ccc(N)cc4)ncnc32)[C@H](O)[C@@H]1O [AB-MECA, reference compound]",inhibition of Mtb DNA gyrase activities,Mtb DNA gyrase,did not inhibit
Cc1c(CCC(=O)O)c(=O)oc2cc3occ(-c4ccc(Br)cc4)c3cc12 [Compound 46],inhibition of E. coli DNA gyrase activities,E. coli DNA gyrase [1]; 200 μM of compounds,completely inhibited
same,IC50,E. coli DNA gyrase [2],11.4 µM
same,inhibition of E. coli DNA gyrase activities,E. coli DNA gyrase [2],potent bacterial DNA gyrase inhibitors
same,IC50,E. coli DNA gyrase [2]; [4],11.2 µM
same,IC50,Mtb DNA gyrase; Table 5,75 µM
same,MIC,E. coli (ATCC 25922),> 200 µM
same,MIC,E. coli imp,6.25 µM
same,MIC,"S. aureus (ATCC 14775); Table 5, read-out: MIC (μM) SA",> 200 µM
same,MIC,S. aureus (ATCC 14775); [5],> 200 µM
same,MIC,MRSA (ATCC BAA44); read-out: MIC (μM) MRSA,> 200 µM
same,MIC,MRSA (ATCC BAA44); [6],> 200 µM
same,MIC,B. subtilis (ATCC 6633),6.25 µM
same,activity against Mtb,Mtb,most active for Mtb
same,inhibition at 20 µM,"Mtb; Mycobacterium tuberculosis, read-out: % inhibition (20 μM), 20 μM, Table 6",82.3%
same,cytotoxicity,J774,no cytotoxicity evident
same,IC50,"J774; Mus musculus, J774",> 200 µM
same,cytotoxicity,HepG2,no cytotoxicity evident
same,IC50,"HepG2; Homo sapiens, HepG2",> 200 µM
CN(C)CCNC(=O)c1cccc2nc3cccc(F)c3nc12.Cl [Compound 241],DNA intercalator,DNA,DNA intercalators
CN(C)c1ccc(/C=c2\c3ccccc3n3c2cc(-c2ccccc2)[n+]3C)cc1 [Compound 236],DNA intercalator,DNA,DNA intercalator
"Cc1cc(C)c2c(c1)C(=NNc1ccc(C(=O)O)cc1)C(O)=N2 [Compound 9, 4-[2-(5,7-Dimethyl-2-oxoindol-3-yl)hydrazinyl]benzoic acid]",IC50,E. coli DNA gyrase [2]; [4],1.69 µM
same,growth inhibition of S. aureus,S. aureus (ATCC 14775),strongly inhibited the growth
same,growth inhibition of MRSA,MRSA (ATCC BAA44),strongly inhibited the growth
CCOc1ccc2nc3cc(N)ccc3c(N)c2c1 [Compound 257],DNA intercalator,DNA,DNA intercalators
Cc1cc(NN=Cc2ccc([N+](=O)[O-])o2)nc2ccccc12 [Compound 134],MIC,S. aureus (ATCC 14775); [5],200 µM
same,MIC,MRSA (ATCC BAA44); [6],200 µM
Cc1c(CCC(=O)O)c(=O)oc2cc3occ(-c4ccc(Cl)cc4)c3cc12 [Compound 25],IC50,E. coli DNA gyrase [2]; [4],10.6 µM
same,MIC,E. coli imp,25 µM
same,MIC,B. subtilis (ATCC 6633),25 µM
same,% Mtb inhibition,Mtb,0.8%
Cc1c(CCC(=O)O)c(=O)oc2c(C)c3occ(-c4ccc(Cl)cc4)c3cc12 [Compound 120],MIC,E. coli (ATCC 25922),> 200 µM
same,MIC,E. coli imp,> 200 µM
same,MIC,B. subtilis (ATCC 6633),> 200 µM
same,% Mtb inhibition,Mtb,18.7%
O=S(=O)(Cl)c1ccc(Oc2ccc(S(=O)(=O)Cl)cc2)cc1 [NSC212],% inhibition (20 μM),"Mtb; 20 μM, Table 6",84.6%
same,IC50,J774,> 200 µM
same,IC50,HepG2,> 200 µM
COc1cccc2nc3c(C(=O)NCCN(C)C)cccc3cc12.Cl [Compound 240],DNA intercalator,DNA,DNA intercalators
Cc1c(CCC(=O)O)c(=O)oc2c(C)c3occ(-c4ccccc4)c3cc12 [Compound 121],inhibition of E. coli DNA gyrase activities,E. coli DNA gyrase [1]; 50 μM of compounds,completely inhibited
same,MIC,E. coli (ATCC 25922),> 200 µM
same,MIC,E. coli imp,100 µM
same,% Mtb inhibition,Mtb,36.7%
Cc1c(CCC(=O)O)c(=O)oc2c(C)c3occ(-c4ccc(-c5ccccc5)cc4)c3cc12 [Compound 119],MIC,E. coli (ATCC 25922),> 200 µM
same,MIC,E. coli imp,> 200 µM
same,MIC,B. subtilis (ATCC 6633),> 200 µM
same,activity against Mtb,Mtb,most active for Mtb
same,cytotoxicity,J774,no cytotoxicity evident
same,cytotoxicity,HepG2,no cytotoxicity evident
CN1/C(=C/c2cc[n+](C)c3ccccc23)Sc2ccccc21.Cc1ccc(S(=O)(=O)[O-])cc1 [Compound 248],DNA intercalator,DNA,DNA intercalators
Cc1coc2cc3oc(=O)c(CCC(=O)O)c(C)c3cc12 [Compound 122],inhibition of E. coli DNA gyrase activities,E. coli DNA gyrase [2],All psoralen derivatives inhibited E. coli and Mtb DNA gyrase activities except compounds 118 and 122
same,inhibition of Mtb DNA gyrase activities,Mtb DNA gyrase,All psoralen derivatives inhibited E. coli and Mtb DNA gyrase activities except compounds 118 and 122
same,MIC,S. aureus (ATCC 14775); [5],200 µM
same,MIC,MRSA (ATCC BAA44); [6],200 µM
same,% Mtb inhibition,Mtb,15.7%
Cc1c(CCC(=O)O)c(=O)oc2c(C)c3occ(-c4ccc(N5CCCC5)cc4)c3cc12 [Compound 125],growth inhibition of S. aureus,S. aureus (ATCC 14775),did not inhibit the growth
same,growth inhibition of MRSA,MRSA (ATCC BAA44),did not inhibit the growth
same,% Mtb inhibition,Mtb,10.2%
Cc1c(CCC(=O)O)c(=O)oc2c(C)c3occ(-c4ccc(Br)cc4)c3cc12 [Compound 48],IC50,E. coli DNA gyrase [2]; [4],4.28 µM
same,mode of inhibition (ATP competitive),E. coli DNA gyrase [3],ATP competitive inhibitor
same,MIC,E. coli (ATCC 25922),> 200 µM
same,MIC,E. coli imp,> 200 µM
same,MIC,B. subtilis (ATCC 6633),> 200 µM
same,% Mtb inhibition,Mtb,38.6%
